Results as given in patent EP0840727B1, “3-HYDROXY-2(1H)-[…] AGENTS” (priority 1995, dated 1997).
Like-named read-outs stand apart in the source and are kept apart here. Marks after values point to notes of the source that are not given here.

Assays:
[1] = ligand 30 µmol kg^-1 ip at 1 h after iv ^238Pu(IV) citrate, kill at 24 h, reported previously, cited from earlier work; for percent of injected ^238Pu at 24 h, excreta: feces and GI contents / percent of injected ^238Pu at 24 h, excreta: urine 0-24 h / percent of injected ^238Pu at 24 h, tissues: kidneys: pooled samples
[2] = Promoting excretion of 238Pu(IV) in mice by injected ligands; assay type: in vivo; conditions: for Pu removal (in words): injected ligands, 30 µmol/kg intraperitoneally one hour after ^238Pu(IV); for percent of injected ^238Pu ± SD at 24 h, tissues: liver / percent of injected ^238Pu ± SD at 24 h, tissues: skeleton / percent of injected ^238Pu ± SD at 24 h, tissues: soft tissue / percent of injected ^238Pu ± SD at 24 h, whole body / percent of injected ^238Pu at 24 h, excreta: feces and GI contents / percent of injected ^238Pu at 24 h, excreta: urine 0-24 h / percent of injected ^238Pu at 24 h, tissues: kidneys: ligand 30 µmol kg^-1 ip at 1 h after iv ^238Pu(IV) citrate, kill at 24 h; for percent of injected ^238Pu at 24 h, excreta: feces and GI contents / percent of injected ^238Pu at 24 h, excreta: urine 0-24 h / percent of injected ^238Pu at 24 h, tissues: kidneys: pooled samples
Description: Animal studies were completed using methods detailed in Radiation Protection Dosimetry, in press, P. W. Durbin et al., "In Vivo Chelation of Am(III), Pu(IV), Np(V) and U(VI) in Mice by TREN-(Me-3,2-HOPO)"; Radiation Protection Dosimetry, 17, No. 1, 1989, p. 351, P. W. Durbin et al., "Removal of ^238Pu(IV) from Mice by Polycatechoylate, -Hydroxamate or -Hydroxypyridinonate Ligands"; Radiation Research, 99, 1984, p. 85, P. W. Durbin et al., "Specific Sequestering Agents for the Actinides ..."; Radiation Research, 99, 1984, p. 106, P. W. Durbin et al., "Removal of Pu and Am from Beagles and Mice ..."; Radiation Research, 81, 1980, p. 170, R. D. Lloyd et al., and P. W. Durbin et al., "Specific Sequestering Agents for the Actinides ...". The foregoing articles are hereby incorporated by reference.
Radionuclides used in the animal studies came from a variety of sources. However, they can be purchased commercially. The ^238Pu(IV) citrate and ^241Am(III) citrate solutions were prepared for animal injection by 8- to 10-fold dilution with 0.14M NaCl (pH 4) of concentrated stock solutions (0.08M sodium citrate buffer) that had been held in frozen storage at Lawrence Berkeley Laboratory (hereinafter LBL) for several years. [The ^238Pu(IV) was originally obtained from D. R. Atherton at the University of Utah Radiobiology Laboratory, Salt Lake City. The ^241Am(III) solution had been obtained many years earlier from the LBL Actinide Chemistry group.]
The novel chelating agents of the present invention and comparative compounds were tested for their effectiveness in promoting excretion ^238Pu(IV) in nice by injected ligands as follows. Mice, in groups of five, each received an intravenous injection of 1850 Bq ^238Pu(IV) in 0.2 mL of citrate buffer. One hour later, 30 µmol/kg of ligand was injected intraperitoneally in 0.5 mL of saline. The mice were killed 24 hours after the Pu injection, frozen, and dissected after partial thawing. The ^238Pu in skeleton, soft tissues, and separated excreta was determined by counting the ^234U L x-rays. Results of removal of ^238Pu(IV) from mice by injected ligands are summarized in Table 3, which also includes data for CaNa3-DTPA and other reference ligands and the Pu-injected controls. […] While the case of multidente 1,2-HOPO and catechoylamide chelating agents, octadentates are always better chelating agents than the corresponding hexadentates and tetradentates.

[3] = In vivo acute toxicity test of injected ligands in mice; conditions: for toxicity (in words): even at the relatively high dosage of 2x500 µmol/kg in 8 hours
Procedure: The test of acute toxicity of novel and comparative ligands was carried out as follows. Groups of five mice were each given a single i.p. injection of […] of ligand and a day for 10 days or given two i.p. injections of […] in 8 hours. The ligand was dissolved in 0.5 to 1.0 ml of saline at pH 7 to 8. After a period of observation, the mice were killed; selected tissues were removed and fixed for histopathological examination; and unusual findings at autopsy were recorded. […]

[4] = protocol I, 100 µmol kg^-1 x 10 daily i.p., study length 11 d
[5] = protocol I, 100 µmol kg^-1 x 10 daily i.p., study length 21 d
[6] = protocol II, 500 µmol kg^-1 x 2 in 8 h, study length 11 d
[7] = protocol IA, 100 µmol kg^-1 x 2 daily, study length 3 d
[8] = protocol IA, 100 µmol kg^-1 x 2 daily, study length 11 d
[9] = protocol IA, 100 µmol kg^-1 x 2 daily, study length 6 d, data for two moribund mice autopsied on d 3

Compound	percent of injected ^238Pu at 24 h, excreta: feces and GI contents [1]	percent of injected ^238Pu at 24 h, excreta: urine 0-24 h [1]	percent of injected ^238Pu at 24 h, tissues: kidneys [1]	percent of injected ^238Pu ± SD at 24 h, tissues: liver [1]	percent of injected ^238Pu ± SD at 24 h, tissues: skeleton [1]	percent of injected ^238Pu ± SD at 24 h, tissues: soft tissue [1]	percent of injected ^238Pu ± SD at 24 h, whole body [1]	Pu removal (in words) [2]	percent of injected ^238Pu ± SD at 24 h, tissues: liver [2]	percent of injected ^238Pu ± SD at 24 h, tissues: skeleton [2]	percent of injected ^238Pu ± SD at 24 h, tissues: soft tissue [2]	percent of injected ^238Pu ± SD at 24 h, whole body [2]	percent of injected ^238Pu at 24 h, excreta: feces and GI contents [2]	percent of injected ^238Pu at 24 h, excreta: urine 0-24 h [2]	percent of injected ^238Pu at 24 h, tissues: kidneys [2]	toxicity (in words) [3]	no. of survivors [3, 4]	percent control mean + SD: body weight [3, 4]	percent control mean + SD: kidney weight [3, 4]	percent control mean + SD: plasma urea N [3, 4]	other results
O=C(NCc1cc(CNC(=O)c2cccc(=O)n2O)cc(CNC(=O)c2cccc(=O)n2O)c1)c1cccc(=O)n1O [ME-(1,2-HOPO)]	43% of injected ^238Pu	9.6% of injected ^238Pu	1.8% of injected ^238Pu	18 ± 6.3^d percent of injected ^238Pu	17 ± 2.5% of injected ^238Pu	10 ± 1.8% of injected ^238Pu	47 ± 9.4% of injected ^238Pu	–	–	–	–	–	–	–	–	–	–	–	–	–	–
O=C(NCCCCN(CCCNC(=O)c1cccc(=O)n1O)C(=O)c1cccc(=O)n1O)c1cccc(=O)n1O [3,4-LI(1,2-HOPO)]	58% of injected ^238Pu	7.9% of injected ^238Pu	0.6% of injected ^238Pu	18 ± 4.8% of injected ^238Pu	9.9 ± 3.6% of injected ^238Pu	5.8 ± 1.3% of injected ^238Pu	34 ± 9.2% of injected ^238Pu	–	–	–	–	–	–	–	–	–	–	–	–	–	–
Cn1ccc(C(=O)NCCCCCNC(=O)c2ccn(C)c(=O)c2O)c(O)c1=O [5-LI-Me-3,2-HOPO, 1,5-bis[(3-hydroxy-1-methyl-2-oxo-1,2-dihydropyridin-4-yl)carboxamido]pentane]	–	–	–	–	–	–	–	as effective or more effective than the hexadentate and octadentate chelating agents	3.1 ± 0.8^d percent of injected ^238Pu	10 ± 1.2% of injected ^238Pu	1.9 ± 0.5% of injected ^238Pu	16 ± 1.9^d percent of injected ^238Pu	67.6% of injected ^238Pu	17.5% of injected ^238Pu	0.3% of injected ^238Pu	low toxicity	5	102 ± 5 percent control	109 ± 14 percent control	89 ± 1 percent control	no. of survivors [3, 5]: 5; percent control mean + SD: body weight [3, 5]: 102 ± 5 percent control; percent control mean + SD: kidney weight [3, 5]: 100 ± 4 percent control; percent control mean + SD: plasma urea N [3, 5]: 101 ± 2 percent control; no. of survivors [3, 6]: 5; percent control mean + SD: body weight [3, 6]: 99 ± 3 percent control; percent control mean + SD: kidney weight [3, 6]: 109 ± 9 percent control; percent control mean + SD: plasma urea N [3, 6]: 98 ± 18 percent control
Cn1ccc(C(=O)NCCCCCCNC(=O)c2ccn(C)c(=O)c2O)c(O)c1=O [6-LI-Me-3,2-HOPO, 1,6-bis[(3-hydroxy-1-methyl-2-oxo-1,2-dihydropyridin-4-yl)carboxamindo]hexane]	–	–	–	–	–	–	–	–	6.5 ± 3.7^d percent of injected ^238Pu	12 ± 1.8% of injected ^238Pu	3.7 ± 1.8% of injected ^238Pu	23 ± 4.9^d percent of injected ^238Pu	62.9% of injected ^238Pu	14.4% of injected ^238Pu	0.5% of injected ^238Pu	–	–	–	–	–	no. of survivors [3, 7]: 5; percent control mean + SD: body weight [3, 7]: 83 ± 3 percent control; percent control mean + SD: kidney weight [3, 7]: 132 ± 11 percent control; percent control mean + SD: plasma urea N [3, 7]: 343 ± 140 percent control; no. of survivors [3, 8]: 3; percent control mean + SD: body weight [3, 8]: 101 ± 5 percent control; percent control mean + SD: kidney weight [3, 8]: 112 ± 13 percent control; percent control mean + SD: plasma urea N [3, 8]: 92 ± 6 percent control
Cn1ccc(C(=O)NCCCNC(=O)c2ccn(C)c(=O)c2O)c(O)c1=O [3-LI-Me-3,2-HOPO, 1,3-bis[(3-hydroxy-1-methyl-2-oxo-1,2-dihydropyridin-4yl)carboxamido]propane]	–	–	–	–	–	–	–	–	9.5 ± 4.9^d percent of injected ^238Pu	14 ± 1.9% of injected ^238Pu	2.6 ± 0.4% of injected ^238Pu	27 ± 5.2% of injected ^238Pu	41.6% of injected ^238Pu	32% of injected ^238Pu	0.5% of injected ^238Pu	–	–	–	–	–	no. of survivors ([3]; protocol IA, 100 µmol kg^-1 x 2 daily, study length 6 d): 0; percent control mean + SD: body weight [3, 9]: 89 ± 4 percent control; percent control mean + SD: kidney weight [3, 9]: 222 ± 29 percent control; percent control mean + SD: plasma urea N [3, 9]: >1800 percent control
Cn1ccc(C(=O)NCCOCCNC(=O)c2ccn(C)c(=O)c2O)c(O)c1=O [5-LI-O-Me-3,2-HOPO, 1,5-bis[(3-hydroxy-1-methyl-2-oxo-1,2-dihydropyridin-4-yl)carboxamino]-3-oxypentane]	–	–	–	–	–	–	–	as effective or more effective than the hexadentate and octadentate chelating agents	2.1 ± 0.3^d percent of injected ^238Pu	11 ± 1.6% of injected ^238Pu	1.6 ± 0.2^d percent of injected ^238Pu	15 ± 2.1^d percent of injected ^238Pu	61.7% of injected ^238Pu	23.5% of injected ^238Pu	0.2% of injected ^238Pu	low toxicity	5	103 ± 5 percent control	100 ± 19 percent control	83 ± 5 percent control	no. of survivors [3, 5]: 5; percent control mean + SD: body weight [3, 5]: 101 ± 5 percent control; percent control mean + SD: kidney weight [3, 5]: 111 ± 5 percent control; percent control mean + SD: plasma urea N [3, 5]: 86 ± 18 percent control; no. of survivors [3, 6]: 10; percent control mean + SD: body weight [3, 6]: 100 ± 2 percent control; percent control mean + SD: kidney weight [3, 6]: 108 ± 10 percent control; percent control mean + SD: plasma urea N [3, 6]: 77 ± 10 percent control
